Results as given in BindingDB's records for patent US20250197406 (1ST Biotherapeutics, 2025).

Molecular target: Mitogen-activated protein kinase kinase kinase kinase 1 (Homo sapiens, UniProt Q92918)
Test: HPK1 Kinase Assay
Experimental: HPK1 kinase activity was measured by Promega's ADP-Glo™ kinase assay. In this assay, 5 ng of recombinant human HPK1 (signalchem) is incubated with 5 μL of compounds (0.5% DMSO), 5 μL of MBP (0.5 μg/μl) and 5 μL of ATP (25 μM) in buffer (40 mM Tris, 7.5; 20 mM MgCl2; 0.1 mg/ml BSA; 50 μM DTT.). The assay was started by incubating the reaction mixture in a 96-well plate at 30° C. for 40 minutes. After the incubation, 25 μL ADP-Glo reagent was added and the reaction was incubated at room temperature for 40-min to stop the reaction and degrade residual ATP. The ADP product was then converted to ATP by adding 50 μL per well of detection reagent. Luminescence was detected after 30-min room temperature incubation with the Molecular device I3X plate reader. The IC50 values were calculated from a series of percent inhibition values determined at a range of inhibitor concentration using software routines as implemented in the GraphPad Prism 7 software and SigmaPlot13.0.

Chain of Mitogen-activated protein kinase kinase kinase kinase 1 (Q92918 whole entry): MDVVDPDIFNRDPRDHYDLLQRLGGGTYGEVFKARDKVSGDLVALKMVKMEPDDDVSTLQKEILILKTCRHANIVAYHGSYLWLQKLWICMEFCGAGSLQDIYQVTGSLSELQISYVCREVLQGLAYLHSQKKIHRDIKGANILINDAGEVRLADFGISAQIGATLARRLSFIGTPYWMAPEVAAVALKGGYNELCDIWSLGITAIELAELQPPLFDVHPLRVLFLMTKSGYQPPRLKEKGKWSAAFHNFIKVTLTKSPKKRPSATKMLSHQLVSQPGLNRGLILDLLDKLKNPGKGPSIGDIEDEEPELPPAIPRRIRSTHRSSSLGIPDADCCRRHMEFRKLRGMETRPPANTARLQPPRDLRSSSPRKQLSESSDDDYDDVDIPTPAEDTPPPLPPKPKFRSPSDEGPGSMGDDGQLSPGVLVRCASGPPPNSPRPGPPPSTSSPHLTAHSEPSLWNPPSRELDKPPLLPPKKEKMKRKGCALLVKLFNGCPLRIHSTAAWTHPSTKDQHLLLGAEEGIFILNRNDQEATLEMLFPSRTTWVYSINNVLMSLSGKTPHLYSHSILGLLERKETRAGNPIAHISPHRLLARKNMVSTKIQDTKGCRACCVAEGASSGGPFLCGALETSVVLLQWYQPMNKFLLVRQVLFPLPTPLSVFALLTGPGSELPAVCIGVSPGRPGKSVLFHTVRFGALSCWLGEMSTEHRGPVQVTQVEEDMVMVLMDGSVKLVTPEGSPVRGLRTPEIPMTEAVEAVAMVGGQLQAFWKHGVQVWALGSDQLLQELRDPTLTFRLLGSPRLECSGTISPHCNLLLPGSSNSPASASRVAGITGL

CC(C)Nc1c(F)c(Cl)c(-c2cn3cc(NC(=O)C4(F)CC4)nc3cn2)c2cn[nH]c12 [US20250197406, Example 52]
IC50: < 100 nM

CC(=O)Nc1cn2cc(-c3c(Cl)c(F)c(NC(C)C)c4[nH]ncc34)ncc2n1 [US20250197406, Example 43]
IC50: < 100 nM
